Source: patent publication US12637425B2, “Compounds and formulations for treating ophthalmic diseases” (Visus Therapeutics, Inc., priority 2020, dated 2026)

How the values were obtained:
[1] = target: T1, Alpha-Crystallin Domain of alpha B crystallin containing the E117C mutation (Homo sapiens, UniProt P02511, E117C); assay: CryAB binding assay (MicroScale Thermophoresis, direct binding); settings: 100 nM Cy5-labeled protein, Tris buffer pH 8
T1 construct: the Alpha-Crystallin Domain of alpha B crystallin containing the E117C mutation
T1 sequence (P02511 56-164 E117C limits assumed): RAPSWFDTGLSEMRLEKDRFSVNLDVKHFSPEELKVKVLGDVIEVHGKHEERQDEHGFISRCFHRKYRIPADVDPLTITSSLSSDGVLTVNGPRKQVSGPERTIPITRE
Description: Example A-2: CryAB Binding Assay
Affinities were determined by MicroScale Thermophoresis using a direct binding assay. Briefly, the Alpha-Crystallin Domain of alpha B crystallin containing the E117C mutation was alkylated with a Cy5 dye and monitored for binding at 100 nM protein in Tris buffer pH 8, containing 0.1% PEG-8000, 0.05% Tween-20, and 5% DMSO. Binding assays were performed by titrating ligand against a mixture of the dye-labeled protein and monitoring fluorescence changes indicating binding. Based on observed fluorescence measurements for each compound titration a KD was calculated using the Law of Mass Action equation.

[2] = target: T2, Recombinant cryAB(R120G) protein (Homo sapiens, UniProt P02511, R120G); assay: Kinetic turbidity aggregation assay of recombinant cryAB(R120G); format: biochemical; settings: for inhibition at 25 µM: 25 μM compound, read-out: % Inhibition of Protein Aggregation, 25 μM cmpd; for inhibition at 25 µM / inhibition at 100 µM / inhibition at 400 µM: 15 μM cryAB(R120G), 42° C., absorbance at 550 nm; for inhibition at 100 µM: 100 μM compound, read-out: % Inhibition of Protein Aggregation, 100 μM cmpd; for IC50: inhibition of cryAB(R120G) protein aggregation; for inhibition at 400 µM: 400 μM compound, read-out: % Inhibition of Protein Aggregation, 400 μM cmpd
T2 sequence (P02511 1-175 R120G): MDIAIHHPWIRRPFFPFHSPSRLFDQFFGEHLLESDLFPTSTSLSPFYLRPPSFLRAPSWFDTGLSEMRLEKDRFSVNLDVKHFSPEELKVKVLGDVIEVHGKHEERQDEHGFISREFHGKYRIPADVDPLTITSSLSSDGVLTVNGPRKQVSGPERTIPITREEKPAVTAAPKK
Summary of the method: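 Recombinant human cryAB R120G at 15 μM final in 50 mM Tris, 100 mM NaCl, 5 mM DTT, 0.01% Triton X-100, 0.05% PEG-8000 with 4% DMSO. Compounds added from 2-fold serial DMSO dilutions, run in quadruplicate; aggregation followed kinetically by turbidity.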

Row | SMILES | Kd [1] [µM] | inhibition at 25 µM [2] [%] | inhibition at 100 µM [2] [%] | IC50 [2] [µM] | inhibition at 400 µM [2] [%]
1 | Cn1cc([C@H](CNS(=O)(=O)c2ccc3cc[nH]c3c2)N2CCCC2)c2ccccc21 [Compound 25, (R)-N-(2-(1-methyl-1H-indol-3-yl)-2-(pyrrolidin-1-yl)ethyl)-1H-indole-6-sulfonamide] | 10 to 50 | 39 | 97.1 | 10 to 50 | 97.2
2 | CN(C)C(CNS(=O)(=O)c1ccc2cc[nH]c2c1)c1cn(C)c2ccccc12 (centres unmarked) [Compound 10, N-(2-(dimethylamino)-2-(1-methyl-1H-indol-3-yl)ethyl)-1H-indole-6-sulfonamide] | 10 to 50 | 69.8 | 98.7 | 10 to 50 | 99.7
3 | Cn1cc([C@@H](CNS(=O)(=O)c2ccc3cc[nH]c3c2)N2CC[C@H](c3ccccc3)C2)c2ccccc21 [Compound 60, N-((S)-2-(1-methyl-1H-indol-3-yl)-2-((R)-3-phenylpyrrolidin-1-yl)ethyl)-1H-indole-6-sulfonamide] | – | 57 | 94.9 | – | –
4 | Cn1cc(C(CNS(=O)(=O)c2ccc3cc[nH]c3c2)N2CCCC2)c2ccccc21 (centres unmarked) [Compound 5, N-(2-(1-methyl-1H-indol-3-yl)-2-(pyrrolidin-1-yl)ethyl)-1H-indole-6-sulfonamide] | – | 99.6 | 99.8 | ≤ 10 | 97.9
5 | Cn1cc(C(CNS(=O)(=O)c2ccc3cc[nH]c3c2)N2CCC(O)CC2)c2ccccc21 (centres unmarked) [Compound 40, N-(2-(4-hydroxypiperidin-1-yl)-2-(1-methyl-1H-indol-3-yl)ethyl)-1H-indole-6-sulfonamide] | – | 16 | 79.7 | – | –
6 | CC(C)n1cc(C(CNS(=O)(=O)c2cccc3[nH]ccc23)N(C)C)c2ccccc21 (centres unmarked) [Compound 13, N-(2-(dimethylamino)-2-(1-isopropyl-1H-indol-3-yl)ethyl)-1H-indole-4-sulfonamide] | – | -6 | 32.7 | – | 94.7
7 | Cn1ccc2ccc(S(=O)(=O)NCC(c3cn(C)c4ccccc34)N3CCCC3)cc21 (centres unmarked) [Compound 33, 1-methyl-N-(2-(1-methyl-1H-indol-3-yl)-2-(pyrrolidin-1-yl)ethyl)-1H-indole-6-sulfonamide] | – | 27 | 82.8 | – | –
8 | Cn1cc([C@@H](CNS(=O)(=O)c2ccc3cc[nH]c3c2)N2CCCC2)c2ccccc21 [Compound 24, (S)-N-(2-(1-methyl-1H-indol-3-yl)-2-(pyrrolidin-1-yl)ethyl)-1H-indole-6-sulfonamide] | ≤ 10 | 99.7 | 99.9 | ≤ 10 | –
9 | Cn1cc(C(CNS(=O)(=O)c2ccc3cc[nH]c3c2)N2CC[C@H](F)C2)c2ccccc21 (stereo partly drawn) [Compound 36, N-(2-((S)-3-fluoropyrrolidin-1-yl)-2-(1-methyl-1H-indol-3-yl)ethyl)-1H-indole-6-sulfonamide] | – | 99.7 | 83.9 | ≤ 10 | –

Other lines, results leading:

Row | Kd [1] [µM] | inhibition at 25 µM [2] [%] | inhibition at 100 µM [2] [%] | IC50 [2] [µM] | inhibition at 400 µM [2] [%] | SMILES
10 | ≤ 10 | 99.7 | 94.3 | ≤ 10 | – | Cn1cc(C(CN(CC#N)S(=O)(=O)c2ccc3cc[nH]c3c2)N2CCCC2)c2ccccc21 (centres unmarked) [Compound 93, N-(cyanomethyl)-N-(2-(1-methyl-1H-indol-3-yl)-2-(pyrrolidin-1-yl)ethyl)-1H-indole-6-sulfonamide]
11 | ≤ 10 | 99 | 99.6 | ≤ 10 | – | CCn1nc([C@@H](CNS(=O)(=O)c2ccc3cc[nH]c3c2)N2CCCC2)c2ccccc21 [Compound 91, (R)-N-(2-(1-ethyl-1H-indazol-3-yl)-2-(pyrrolidin-1-yl)ethyl)-1H-indole-6-sulfonamide]
12 | – | -28 | 95.1 | – | – | Cn1cc([C@@H](CNS(=O)(=O)c2ccc3cc[nH]c3c2)N2CCCC2)c2cnccc21 [Compound 80, (S)-N-(2-(1-methyl-1H-pyrrolo[3,2-c]pyridin-3-yl)-2-(pyrrolidin-1-yl)ethyl)-1H-indole-6-sulfonamide]
13 | – | 80 | 94.1 | – | – | CN(Cc1cncs1)[C@H](CNS(=O)(=O)c1ccc2cc[nH]c2c1)c1cn(C)c2ccccc12 [Compound 86, (S)-N-(2-(methyl(thiazol-5-ylmethyl)amino)-2-(1-methyl-1H-indol-3-yl)ethyl)-1H-indole-6-sulfonamide]
14 | – | 1 | 66.7 | – | – | Cn1cc([C@H](CNS(=O)(=O)c2ccc3cc[nH]c3c2)N2CC[C@H](c3ccccc3)C2)c2ccccc21 [Compound 61, N-((R)-2-(1-methyl-1H-indol-3-yl)-2-((R)-3-phenylpyrrolidin-1-yl)ethyl)-1H-indole-6-sulfonamide]
15 | – | 37 | 84.4 | – | – | Cn1cc([C@H](CNS(=O)(=O)c2ccc3cc[nH]c3c2)NCc2cncs2)c2ccccc21 [Compound 85, (R)-N-(2-(1-methyl-1H-indol-3-yl)-2-((thiazol-5-ylmethyl)amino)ethyl)-1H-indole-6-sulfonamide]
16 | – | 94 | 94.3 | – | – | Cn1cc([C@H](CNS(=O)(=O)c2ccc3cc[nH]c3c2)N2CCC2)c2ccccc21 [Compound 102, (R)-N-(2-(azetidin-1-yl)-2-(1-methyl-1H-indol-3-yl)ethyl)-1H-indole-6-sulfonamide]
17 | – | 28 | 85.1 | – | – | C[C@@H]1CCN([C@H](CNS(=O)(=O)c2ccc3cc[nH]c3c2)c2cn(C)c3ccccc23)C1 [Compound 76, N-((S)-2-(1-methyl-1H-indol-3-yl)-2-((R)-3-methylpyrrolidin-1-yl)ethyl)-1H-indole-6-sulfonamide]
